From US5053329A, “Process for preparation of novel angiotensin II antagonists” (Merck & Co., Inc., priority 1991, dated 1991)

Molecular target: T1, angiotensin II receptor (rabbit aortae membrane preparation) (Oryctolagus cuniculus, UniProt P34976)
T1 sequence (P34976 1-359): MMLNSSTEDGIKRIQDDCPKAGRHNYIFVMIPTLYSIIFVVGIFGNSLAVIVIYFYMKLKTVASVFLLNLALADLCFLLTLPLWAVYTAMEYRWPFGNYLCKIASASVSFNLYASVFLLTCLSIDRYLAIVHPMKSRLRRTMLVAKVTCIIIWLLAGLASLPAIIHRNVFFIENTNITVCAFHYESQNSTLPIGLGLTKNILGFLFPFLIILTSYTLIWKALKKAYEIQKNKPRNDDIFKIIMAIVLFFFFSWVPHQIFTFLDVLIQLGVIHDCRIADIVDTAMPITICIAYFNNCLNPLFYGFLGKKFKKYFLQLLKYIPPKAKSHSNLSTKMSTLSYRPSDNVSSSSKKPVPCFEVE
Experiment: Receptor binding assay using rabbit aortae membrane preparation (displacement of 125I-Sar1 Ile8-angiotensin II)
Conditions: result in words
Method: This assay is also referred to herein as the "IC50 " assay.
RECEPTOR BINDING ASSAY USING RABBIT AORTAE MEMBRANE PREPARATION
Three frozen rabbit aortae (obtained from Pel-Freeze Biologicals) were suspended in 5 mM Tris-0.25M Sucrose, pH 7.4 buffer (50 ml) homogenized, and then centrifuged. The mixture was filtered through a cheesecloth and the supernatant was centrifuged for 30 minutes at 20,000 rpm at 4° C. The pellet thus obtained was resuspended in 30 ml of 50 mM Tris-5 mM MgCl2 buffer containing 0.2% Bovine Serum Albumin and 0.2 mg/ml Bacitration and the suspension was used for 100 assay tubes. Samples tested for screening were done in duplicate. To the membrane preparation (0.25 ml) there was added ^125 I-Sar^1 Ile^8 -angiotensin II [obtained from New England Nuclear] (10 ul; 20,000 cpm) with or without the test sample and the mixture was incubated at 37° C. for 90 minutes. The mixture was then diluted with ice-cold 50 mM Tris-0.9% NaCl, pH 7.4 (4 ml) and filtered through a glass fiber filter (GF/B Whatman 2.4" diameter). The filter was soaked in scintillation cocktail (10 ml) and counted for radioactivity using Packard 2660 Tricarb liquid scintillation counter. […]

A II antagonist activity by the IC50 assay	SMILES
exhibit A II antagonist activity	CCCc1nc2c(C)c(O)cnc2n1Cc1ccc(-c2ccccc2-c2nnn[nH]2)cc1 [6-HO-oxidation product]
exhibit A II antagonist activity	CCCc1nc2c(CO)ccnc2n1Cc1ccc(-c2ccccc2-c2nnn[nH]2)cc1 [7-HOCH2 - oxidation product]
